Experimental findings from paper doi:10.1101/2022.03.02.482641v1 (biorxiv, 2022) are described below.

Holding throughout (type): biochemical
Test [1] deals with T1, zfSARM1 (zebrafish SARM1, zfSARM1 w.t.) (Danio rerio, UniProt F1QWA8).
T1 sequence (F1QWA8 22-713): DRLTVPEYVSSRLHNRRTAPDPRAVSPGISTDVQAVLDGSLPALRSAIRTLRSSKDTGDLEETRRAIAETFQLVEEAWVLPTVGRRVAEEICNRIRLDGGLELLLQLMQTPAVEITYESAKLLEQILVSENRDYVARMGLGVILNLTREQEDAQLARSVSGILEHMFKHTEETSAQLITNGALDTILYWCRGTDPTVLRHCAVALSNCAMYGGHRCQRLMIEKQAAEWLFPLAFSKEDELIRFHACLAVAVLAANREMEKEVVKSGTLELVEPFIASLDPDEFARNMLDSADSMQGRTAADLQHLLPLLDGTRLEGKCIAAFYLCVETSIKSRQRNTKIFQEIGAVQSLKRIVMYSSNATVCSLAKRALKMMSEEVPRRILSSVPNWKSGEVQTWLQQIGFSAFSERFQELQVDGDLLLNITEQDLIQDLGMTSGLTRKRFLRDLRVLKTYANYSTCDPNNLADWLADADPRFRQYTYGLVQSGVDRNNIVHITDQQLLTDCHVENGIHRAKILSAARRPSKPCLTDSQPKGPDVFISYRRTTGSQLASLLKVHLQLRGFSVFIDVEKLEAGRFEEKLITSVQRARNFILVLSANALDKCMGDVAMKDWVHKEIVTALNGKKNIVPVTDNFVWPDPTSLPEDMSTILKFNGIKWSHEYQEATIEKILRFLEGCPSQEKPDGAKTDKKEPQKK
As to the kind of experiment: NADase kinetics, HPLC, substrate inhibition fit. The settings on record: apparent substrate inhibition by NAD+.

Test [2] deals with T2, hSARM1 (hSARM1 w.t., near-intact, 26ERL...GPT724) (Homo sapiens, UniProt Q6SZW1).
T2 sequence (Q6SZW1 26-724): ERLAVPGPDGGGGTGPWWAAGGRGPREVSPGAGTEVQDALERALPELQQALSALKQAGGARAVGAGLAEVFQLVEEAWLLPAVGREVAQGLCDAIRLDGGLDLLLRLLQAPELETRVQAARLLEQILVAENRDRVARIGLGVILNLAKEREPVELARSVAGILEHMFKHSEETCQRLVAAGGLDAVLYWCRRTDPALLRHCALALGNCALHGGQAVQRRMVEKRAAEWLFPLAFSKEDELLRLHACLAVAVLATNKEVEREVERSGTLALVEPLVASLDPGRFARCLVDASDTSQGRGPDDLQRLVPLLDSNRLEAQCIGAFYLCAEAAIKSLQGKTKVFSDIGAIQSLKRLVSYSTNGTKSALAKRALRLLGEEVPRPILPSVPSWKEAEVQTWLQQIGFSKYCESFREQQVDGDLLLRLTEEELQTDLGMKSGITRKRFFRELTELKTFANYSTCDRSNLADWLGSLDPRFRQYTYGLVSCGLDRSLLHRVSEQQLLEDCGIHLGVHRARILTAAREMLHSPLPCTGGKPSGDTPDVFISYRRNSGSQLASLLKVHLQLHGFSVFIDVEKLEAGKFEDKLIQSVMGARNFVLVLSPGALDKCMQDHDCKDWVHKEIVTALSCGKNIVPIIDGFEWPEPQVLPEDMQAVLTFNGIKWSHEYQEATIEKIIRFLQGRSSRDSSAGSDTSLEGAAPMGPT
As to the kind of experiment: NADase kinetics, HPLC, substrate inhibition fit. The settings on record: apparent substrate inhibition by NAD+.

The target in test [3] is T1, zfSARM1 (zebrafish SARM1, zfSARM1 w.t.). As to the kind of experiment: HPLC of ADPR formation.
For test [4], the target named is T2, hSARM1 (hSARM1 w.t., near-intact, 26ERL...GPT724). Kind of test: HPLC of ADPR formation.

For the compound `NC(=O)c1ccc[n+]([C@@H]2O[C@H](COP(=O)([O-])OP(=O)(O)OC[C@H]3O[C@@H](n4cnc5c(N)ncnc54)[C@H](O)[C@@H]3O)[C@@H](O)[C@H]2O)c1` [NAD+], the Ki in test [1] is 1350 µM; in test [2] it was 727 µM.
Regarding `N#Cc1c(O)nsc1Nc1ccccc1C(F)(F)F` [TK138], the concentration for a half-maximal effect (EC50) in test [3] stood at 2.7 µM. This compound also registered a concentration for half-maximal inhibition (IC50) in test [4] of 2.9 µM.
`CCOC(=O)Cn1sc2nc(C)cc(C)c2c1=O` [TK142] had a 50% inhibitory concentration (IC50) in test [4] of 1.8 µM.
`Cn1c(=O)c(I)c(O)c2ccccc21` [TK210]: the IC50 in test [4] is 4.6 µM.
Same read-out and setting: as for `O=c1[nH]sc2ccccc12` [TK222], the figure is 3.2 µM.
